Patent US20260069555A1, “Compositions and Methods for Modulating the Effect of Beta-Blocker Activity in a Subject” (Duke University, priority 2021, published 2026)
Values joined by “and” are separate entries in the source; they are usually repeats but may differ in a detail not shown here. Identical values can stand only once.

Columns and labels:
β2AR = β2AR (Homo sapiens, UniProt P07550); experiment: 125I-CYP competition radioligand binding at β2AR in HDL particles
[1] = biological target: endogenously expressed β2AR (Homo sapiens, UniProt P07550); experiment: GloSensor cAMP generation in HEK293 cells; conditions: 30 μM modulator
endogenously expressed β2AR, sequence (P07550 whole entry): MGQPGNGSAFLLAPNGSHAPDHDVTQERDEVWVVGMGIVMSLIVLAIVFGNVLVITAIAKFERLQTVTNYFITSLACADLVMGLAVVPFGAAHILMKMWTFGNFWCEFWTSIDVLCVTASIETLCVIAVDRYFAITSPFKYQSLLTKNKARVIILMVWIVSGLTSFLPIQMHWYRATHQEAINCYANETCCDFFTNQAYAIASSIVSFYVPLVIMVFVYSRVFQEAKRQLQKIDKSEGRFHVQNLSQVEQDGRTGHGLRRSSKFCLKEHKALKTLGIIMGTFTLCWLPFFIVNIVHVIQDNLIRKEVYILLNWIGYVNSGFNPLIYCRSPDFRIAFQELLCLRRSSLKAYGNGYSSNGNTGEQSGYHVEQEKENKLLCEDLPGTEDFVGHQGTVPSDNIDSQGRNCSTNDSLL

β2AR-Gs complexes = β2AR-Gs complexes (Homo sapiens, UniProt P07550); experiment: 35S-GTPγS binding to heterotrimeric Gs, β2AR in HDL; conditions: epinephrine 10 μM stimulation
β2AR-Gs complexes, sequence (P07550 whole entry, one chain of several): as the sequence (P07550 whole entry) above

β1AR [2] = biological target: T1, β1AR (Homo sapiens, UniProt P08588); experiment: EGFR transactivation (EGFR endocytosis BRET) in HEK293 cells stably expressing β1ARs; assay type: cell-based
T1 sequence (P08588 whole entry): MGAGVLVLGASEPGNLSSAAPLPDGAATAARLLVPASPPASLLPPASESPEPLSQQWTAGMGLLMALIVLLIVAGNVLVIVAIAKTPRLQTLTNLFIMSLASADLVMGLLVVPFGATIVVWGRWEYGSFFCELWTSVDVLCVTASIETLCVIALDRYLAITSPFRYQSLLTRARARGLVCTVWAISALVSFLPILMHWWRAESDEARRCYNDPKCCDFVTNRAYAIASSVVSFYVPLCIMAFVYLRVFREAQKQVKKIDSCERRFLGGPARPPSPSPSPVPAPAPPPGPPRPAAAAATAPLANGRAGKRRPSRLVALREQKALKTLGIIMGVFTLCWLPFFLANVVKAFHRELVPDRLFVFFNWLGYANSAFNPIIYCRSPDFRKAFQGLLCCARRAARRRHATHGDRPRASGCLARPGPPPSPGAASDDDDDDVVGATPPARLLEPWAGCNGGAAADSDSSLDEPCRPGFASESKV
Description: HEK293 cells stably expressing β1ARs were transfected with 250 ng of EGFR-RlucII and 1 μg of rGFP-FYVE constructs. The day following transfection, cells were re-seeded onto poly-L-ornithine coated 96-well plates at ˜25,000 cells per well. […] The cell-permeable substrate coelenterazine 400a (final concentrations of 5 μM) was added 3˜6 min before BRET measurements.

β1AR [3] = biological target: T1, β1AR; experiment: ERK activation assay in HEK293 cells expressing β1ARs; assay type: cell-based; conditions: for dependency of ERK activation on β-arrestin: β-arrestin1/2 knockout vs wild type HEK293 cells
Excerpt: ERK activation assay: HEK293 cells with stable overexpression of FLAG-tagged β1AR or β-arrestin knockout were described previously. Cells were periodically treated with BM Cyclin (Roche) to avoid mycoplasma contamination. […] Cell lysate samples were separated by SDS-PAGE, transferred to PVDF membrane (Bio-Rad) and subjected to immunoblotting with anti-MAPK 1/2 (EMD Millipore) and anti-p44/42 MAPK (Cell Signaling) antibodies. Immunoblots were detected using enhanced chemiluminescence (Thermo Fisher Scientific) and analyzed with ImageJ software. The densitometry values from pERK blots were normalized to respective total ERK blots, and normalized to the maximum response of control group in each experiment.

β1AR [4] = biological target: T1, β1AR; experiment: GloSensor cAMP assay in HEK293 cells transfected with β1ARs; conditions: for activation of cAMP: β-blockers as stimulating ligands
β1AR [5] = biological target: T1, β1AR; experiment: 125I-CYP competition binding at β1AR-HDL particles (Example 2)
C57BL/6J wild-type mice = experiment: Isoproterenol-induced hemodynamics in mouse heart; assay type: in vivo; conditions: 3 days
Description: Isoproterenol-induced hemodynamic in mouse heart: Eight to twelve-week-old C57BL/6J wild-type mice of both sexes were used. Animal experiments carried out were handled according to approved protocols and animal welfare regulations mandated by the Institutional Animal Care and Use Committee of Duke University Medical Center. […] After treatment, mice were anesthetized with ketamine (100 mg/kg) and xylazine (2.5 mg/kg). After bilateral vagotomy, a 1.4 French (0.46 mm) high fidelity micromanometer catheter (ADInstruments) connected to a pressure transducer (ADInstruments) was inserted into the left ventricle to monitor blood pressure. Basal blood pressure was recorded at steady state after the catheter insertion (2-3 min after insertion). Graded doses of isoproterenol were administered at 45 sec intervals by intravenous injection through a jugular vein. The blood pressure was monitored continuously and recorded at the steady state (35-45 sec after each injection). Data analysis was performed using LabChart 8 software (ADInstruments).

mouse hearts = experiment: Ischemia/reperfusion-induced cell apoptosis in mouse heart (TUNEL); assay type: in vivo
Description: Ischemia reperfusion-induced cell apoptosis in mouse heart: Eight to twelve-week-old C57BL/6J wild-type mice or eight to twenty-seven-week-old αMyHC-Cre:Arrblflox/flox/Arrb2flox/flox mice of both sexes were used. Animals were randomly assigned to, and the researchers were blinded for, treatment groups. […] After 3 days of treatment, cardiac ischemia was produced by the ligation of left anterior descending coronary artery. After 45 min, the ligation was released to allow the blood flow to be restored for 45 min. […] The hearts were then embedded in optimum cutting temperature compound (Sakura Finetek) and snap frozen in liquid nitrogen. TUNEL staining on the cryo-sections were performed with in situ cell death detection kit (Sigma-Aldrich) according to the manufacturer's protocol. Sections were then mounted in ProLon Diamond Antifade Mountant with DAPI (Thermo Fisher Scientific). Images were recorded with Zeiss Axio Observer Z1 confocal microscope with 20× objective. In each heart, sections from different groups (from base to apex of the tissue, apart by 0.5 mm) were stained, and the group with maximum TUNEL-positive cells were used for quantification. At lease 9 images from 3 sections were quantified for each heart. The number of TUNEL-positive cells and the total number of nuclei as determined by DAPI staining were counted using ImageJ software.

β2AR, sequence (P07550 whole entry): as the sequence (P07550 whole entry) above

CC(C)N(C)S(=O)(=O)c1ccc(Sc2ccc(C(N)=O)cc2)c(C(=O)N[C@@H](CC(N)=O)Cc2ccc(C(C)(C)C)cc2)c1 [A9, (R)—N-(4-amino-1-(4-(tert-butyl)phenyl)-4-oxobutan-2-yl)-2-((4-carbamoylphenyl)thio)-5-(N-isopropyl-N-methylsulfamoyl)benzamide]
PAM activity with agonists including epinephrine (β2AR; affinity shifts, 20 μM analog): absolutely no PAM activity | Log KT (dissociation constant of PAM for receptor binding) (β2AR; carvedilol-bound β2AR): −5.533 | cooperativity with carvedilol (β2AR; compared with parent cmpd-6): retains its positive cooperativity with carvedilol | modulation of isoproterenol-stimulated cAMP generation [1]: classic NAM | effect on agonist-stimulated activation of Gs / 35S-GTPγS binding to Gs (β2AR-Gs complexes): markedly blocks

COc1cc2ncnc(Nc3cccc(Cl)c3)c2cc1OC [AG1478]
effect on EGF-induced change in BRET ratio (β1AR [2]; 10 μM pretreatment): blocked

COc1ccc(Sc2ccc(S(=O)(=O)N(C)C(C)C)cc2C(=O)N[C@@H](CC(N)=O)Cc2ccc(C(C)(C)C)cc2)cc1 [Cmpd-6, (R)—N-(4-amino-1-(4-(tert-butyl)phenyl)-4-oxobutan-2-yl)-5-(N-isopropyl-N-methylsulfamoyl)-2-((4-methoxyphenyl)thio)benzamide]
cooperativity on isoproterenol-stimulated ERK activation (β1AR [3]; 30 μM Cmpd-6): no cooperativity | effect on isoproterenol- or carvedilol-induced cAMP dose response curve (β1AR [4]; 30 μM Cmpd-6): no enhancement | cooperativity with the full agonists epinephrine and norepinephrine (β1AR [5]; 25 μM Cmpd-6): minimal positive cooperativity | enhancement of receptor binding affinity of carvedilol for β1ARs (β1AR [5]; FIG. 10A): 7.9 fold and ~8 fold | PAM activity on the isoproterenol-induced EGFR transactivation (β1AR [2]; 30 μM Cmpd-6): no PAM activity | potentiation of the inhibitory effect of carvedilol on heart rate and dP/dt max (C57BL/6J wild-type mice; Cmpd-6 5 mg/kg/day + carvedilol 1 mg/kg/day): only a modest potentiation | TUNEL positive cells in the ischemic zone (mouse hearts; Cmpd-6 5 mg/kg/day alone, wild type mice): ~10%

C=CCc1ccccc1OCC(O)CNC(C)C (stereo not shown) [alprenolol]
dependency of ERK activation on β-arrestin (β1AR [3]): ~50% | activation of cAMP (β1AR [4]): 20 % of the maximal isoproterenol response

CC(C)(Cc1c[nH]c2ccccc12)NCC(O)COc1ccccc1C#N (stereo not shown) [bucindolol]
dependency of ERK activation on β-arrestin (β1AR [3]): independent of β-arrestin | activation of cAMP (β1AR [4]): 40 % of the maximal isoproterenol response

COc1ccccc1OCCNCC(O)COc1cccc2[nH]c3ccccc3c12 (stereo not shown) [carvedilol]
effect on isoproterenol-induced hemodynamics (heart rate, dP/dt max) (C57BL/6J wild-type mice; 1 mg/kg/day, osmotic pump): minimal effect | effect on isoproterenol-induced hemodynamics (heart rate, dP/dt max) (C57BL/6J wild-type mice; higher doses (5, 20 mg/kg/day)): blocked both the heart rate and contractility response | effect on I/R induced apoptosis (mouse hearts; 5 or 20 mg/kg/day, wild type mice): inhibited I/R induced apoptosis | effect on I/R-induced apoptosis (mouse hearts; low or high dose (1 or 20 mg/kg/day), cardiomyocyte-specific β-arrestin1/2 knockout mice): did not reduce

EGF: EGF ligand of the EGFR
ligand-induced EGFR endocytosis (change in BRET ratio) (β1AR [2]; assay validation): robust change in BRET ratio
